Test results: patent US20220023454A1, “PHOTODYNAMIC METHOD TO DECONTAMINATE SURFACES” (priority 2020, published 2022)

Experiments:
[1] = tested on: feline calicivirus (FCV); experiment: Photodynamic inactivation of FCV in water with photosensitizer and light; conditions: for log reduction in FCV: 3 minute exposure; for efficacy against FCV: photodynamic treatment, under the conditions tested (10, 25, 50 μM PS; light exposure)
Experimental: (§1) The inactivation of HuNoV surrogates (e.g., feline calicivirus (FCV) and Tulane virus (TuV)) was studied, by exposure to light in the presence of photosensitizer dyes in water, FCV and TuV were mixed with different concentrations (10, 25, and 50 μM) of three different PS (Rose Bengal (RB), Phloxine B (Ph-B) and chlorophyllin) and then exposed to light for a period of time, e.g., 1, 3, 5, or 10 minutes. While not being limited to a mode of action, capsid integrity and/or genome integrity may be impacted by the exposure of viruses to light in the presence of the PS.
(§2) Shellfish and fresh produce are the most frequent foods implicated in human norovirus (HuNoV) outbreaks in the US. Decontamination of virus-contaminated waters used in depuration of oysters, clams or mussels, and in post-harvest washing of fresh produce, is a mitigation strategy for this human biothreat risk. […] Although the PDT has been studied extensively for bacterial inactivation, studies on its use for viral inactivation in food and water are scarce. Inactivation of >4 log TCID50 of two HuNoV surrogates (feline calicivirus (FCV) and Tulane virus (TuV)) in water was observed upon exposure to LED-blue light for 3 to 10 min using Rose Bengal (RB) or Phloxine-B (Ph-B) as photosensitizers. The virucidal effect of PDT may depend on the type of treated virus, the light source, the type and concentration of the photosensitizer (PS), and the operational parameters such as the distance between the light source and treated object and/or exposure time.

[2] = tested on: Tulane virus (TuV); experiment: Photodynamic inactivation of TuV in water with photosensitizer and light; conditions: for efficacy against TuV: photodynamic treatment, under the conditions tested (10, 25, 50 μM PS; light exposure)
Experimental: as §1, §2

[3] = tested on: Gram positive or Gram negative bacterial suspension, e.g., E. coli, Salmonella enterica, Staphylococcus aureus, or Bacillus subtilis; experiment: Decontamination of lettuce leaves and stainless-steel discs spiked with bacteria, blue LED light, agar plate count; conditions: 50 μM Phloxin-B, 1 cm distance, blue LED 1, 3, 5, and 10 minutes; lettuce leaf or stainless-steel surface
Experimental: Romaine lettuce leaves are cut into small squares (2×2 cm) and then are disinfected using 300 ppm sodium hypochlorite followed by rinsing three times with sterilized distilled water. Sterile stainless-steel discs are also used as a model for surface decontamination. Each sample is spiked with 50 μL of a Gram positive or Gram negative bacterial suspension, e.g., E. coli, Salmonella enterica, Staphylococcus aureus, or Bacillus subtilis, then dried for 30 minutes. 100 μL of a 50 μM Phloxin-B solution is then added to each spiked leaf or stainless-steel surface. The samples are exposed at a 1 cm distance to the blue LED light source for 1, 3, 5, and 10 minutes. After each exposure time any surviving bacterial cells are recovered in 500 μL of recovery buffer followed by vortexing for 0.5 to 1 minute. The surviving bacterial cells are enumerated using Agar plate count technique. A ≥3 log reduction in the bacterial cell counts is observed.

[4] = tested on: FCV; experiment: Virus added to light-preexposed Ph-B solution, cell culture titration; design: species or system feline calicivirus; conditions: 50 μM Phloxin-B pre-exposed to blue LED light 1-10 min; 1 to 5 min contact
Experimental: (§3) Several 50 μM stocks of Phloxin-B solution are prepared (500 μL each). Each stock is pre-exposed to the blue LED light for specific times (e.g., 1, 2, 3, 5, and 10 min). Immediately after light exposure, 50 μL of the tested virus (FCV, TuV, and TGEV) is added to the light-preexposed Ph-B solution for about 1 to 5 min contact times before titrating the surviving virus using a cell culture assay. A >3 log reduction in the virus titer is observed.

[5] = tested on: TuV; experiment: as above; design: species or system Tulane virus; conditions: 50 μM Phloxin-B pre-exposed to blue LED light 1-10 min; 1 to 5 min contact
Experimental: as §3

[6] = tested on: TGEV; experiment: as above; design: species or system transmissible gastroenteritis virus; conditions: 50 μM Phloxin-B pre-exposed to blue LED light 1-10 min; 1 to 5 min contact
Experimental: as §3

Molecule	log reduction in FCV ([1]; 25 μM RB) [log]	efficacy against FCV [1]	log reduction in TuV ([2]; 10 minute exposure, 50 μM RB) [log]	efficacy against TuV [2]	log reduction in FCV ([1]; 50 μM Ph-B) [log]	log reduction in TuV ([2]; 5 minute exposure, 50 μM Ph-B) [log]	log reduction in the bacterial cell counts [3] [log]	log reduction in the virus titer (FCV) [4] [log]	log reduction in the virus titer (TuV) [5] [log]	log reduction in the virus titer (TGEV) [6] [log]
O=C1OC2(c3cc(I)c(O)c(I)c3Oc3c2cc(I)c(O)c3I)c2c(Cl)c(Cl)c(Cl)c(Cl)c21 [RB, Rose Bengal]	4	high efficacy	4	high efficacy						
O=C([O-])c1c(Cl)c(Cl)c(Cl)c(Cl)c1-c1c2cc(Br)c(=O)c(Br)c-2oc2c(Br)c([O-])c(Br)cc12.[Na+].[Na+] [Ph-B, Phloxine B]		high efficacy		high efficacy	4	4	≥ 3	> 3	> 3	> 3
chlorophyllin		low efficacy								
